Reference: ChEMBL document CHEMBL3046298, “Synthesis and metal ion binding activity of methyl 12-amino-13-nitro-7-oxo dehydrodeisopropylabietate derivatives” (Med Chem Res, 2012)

Assays:
[1] = Metal chelating activity of the compound assessed as formation of copper complex by fluorescence quenching assay; assay type: physicochemical
[2] = Metal chelating activity of the compound assessed as formation of iron complex by fluorescence quenching assay; assay type: physicochemical

| Ka [1] [L/mol] | Ka [2] [L/mol] | Structure (SMILES) |
| --- | --- | --- |
| 175.6 | 103.6 | COC(=O)[C@]1(C)CCC[C@]2(C)c3cc(NC(C)(C)C)c([N+](=O)[O-])cc3C(=O)C[C@@H]12 |
| 81.3 | 138.3 | CCNc1cc2c(cc1[N+](=O)[O-])C(=O)C[C@H]1[C@](C)(C(=O)OC)CCC[C@]21C |
| 89.2 | 165 | COC(=O)[C@]1(C)CCC[C@]2(C)c3cc(Nc4ccc(OC)cc4)c([N+](=O)[O-])cc3C(=O)C[C@@H]12 |
| 60.7 | 122.7 | COC(=O)[C@]1(C)CCC[C@]2(C)c3cc(Nc4ccc(C)cc4)c([N+](=O)[O-])cc3C(=O)C[C@@H]12 |
| 97.6 | 305.9 | COC(=O)[C@]1(C)CCC[C@]2(C)c3cc(NCCN)c([N+](=O)[O-])cc3C(=O)C[C@@H]12 |
| 70.3 | 108 | COC(=O)[C@]1(C)CCC[C@]2(C)c3cc(NCCO)c([N+](=O)[O-])cc3C(=O)C[C@@H]12 |
| 107 | 186 | CNc1cc2c(cc1[N+](=O)[O-])C(=O)C[C@H]1[C@](C)(C(=O)OC)CCC[C@]21C |
| 61.7 | 135.7 | CCCNc1cc2c(cc1[N+](=O)[O-])C(=O)C[C@H]1[C@](C)(C(=O)OC)CCC[C@]21C |
| 60.7 | 106.9 | COC(=O)[C@]1(C)CCC[C@]2(C)c3cc(Nc4ccccc4)c([N+](=O)[O-])cc3C(=O)C[C@@H]12 |
| 102.9 | 168.3 | COC(=O)[C@]1(C)CCC[C@]2(C)c3cc(NC(C)C)c([N+](=O)[O-])cc3C(=O)C[C@@H]12 |
| 137.2 | 181.7 | CCCCNc1cc2c(cc1[N+](=O)[O-])C(=O)C[C@H]1[C@](C)(C(=O)OC)CCC[C@]21C |
